# Experiments:
# [1] = system: HGF-induced Fn14 expression in H2073 cells; assay: Immunoblot of HGF-induced Fn14 expression in serum starved H2073 cells; assay type: cell-based, human; conditions: for HGF-induced Fn14 expression: inhibitor 10 μM pre-treated 30 minutes, then HGF (20 ng) three hours
# Experimental: FIGS. 5A and 5B illustrate that inhibition of MEK or ERK abrogates HGF-induced expression of Fn14. (FIG. 5A) Serum starved H2073 cells pre-treated with either vehicle, U0126, or LY294002 for 30 minutes were exposed to HGF (20 ng) for three hours. Cells were harvested, total cell lysates were prepared and immunoblotted with antibodies to Fn14. Tubulin was used as a loading control. (FIG. 5B) H1993 cells were treated with either vehicle or U0126 for three hours Immunoblots for phosphorylated ERK1/2 (pERK1/2) and Fn14 were performed with tubulin used as a loading control.
# Human NSCLC cell lines H2073 and H1993 (American Type Culture Collection, Manassas, Va.) and mouse cell lines CMT64 and CMT167 (Sigma-Aldrich, St. Louis, Mo.) were maintained in RPMI 1640 (Invitrogen, Carlsbad, Calif.) and DMEM (Invitrogen), respectively, supplemented with 10% heat-inactivated fetal bovine serum (FBS) in a 37° C., 5% CO2 atmosphere. For the HGF stimulation, cells were placed in RPMI 1640 without FBS for 18 hours prior to growth factor exposure.
# HGF was purchased from Millipore (Billerica, Mass.). SU11274 and U0126 were purchased from Selleck Chemicals (Houston, Tex.). LY294002 was purchased from Tocris Biosciences (R&D Systems, Minneapolis, Minn.). The final concentrations of inhibitors were SU11274 (2 μM), U0126 (10 μM), and LY294002 (10 μM). Antibodies for immunblot analysis against Fn14, c-Met, and phosphorylated c-Met were purchased from Cell Signaling Technology (Danvers, Mass.), while alpha-tubulin was purchased from Millipore. Immunoblot analysis was performed as previously described (Whitsett T G, et al. (2012) Elevated expression of Fn14 in non-small cell lung cancer correlates with activated EGFR and promotes tumor cell migration and invasion. Am J Pathol 181 1): 111-20).
# [2] = system: Fn14 protein expression in H1993 cells; assay: Immunoblot of Fn14 in H1993 cells treated with inhibitors; assay type: cell-based, human; conditions: immunoblot vs vehicle
# Experimental: FIGS. 4A-4C illustrate that c-Met amplification enhances Fn14 expression levels in NSCLC cell lines. (FIG. 4A) Total cell lysates were prepared from CMT64 and CMT167 cell lines and immunoblotted with the indicated antibodies. Tubulin was used as a loading control. (FIG. 4B) Total cell lysates were prepared from H2073 (primary adenocarcinoma NSCLC cell line) and H1993 (patient-matched metastatic cell line with known c-Met amplification) and immunoblotted with the indicated antibodies. Tubulin was used as a loading control. (FIG. 4C) H1993 cells were treated with vehicle or SU11274 for 24 hr. Cells were harvested, total cell lysates were prepared and immunoblotted with an antibody against Fn14. Tubulin was used as a loading control. FIGS. 5A and 5B illustrate that inhibition of MEK or ERK abrogates HGF-induced expression of Fn14. […] Cells were harvested, total cell lysates were prepared and immunoblotted with antibodies to Fn14. Tubulin was used as a loading control. […] Human NSCLC cell lines H2073 and H1993 (American Type Culture Collection, Manassas, Va.) and mouse cell lines CMT64 and CMT167 (Sigma-Aldrich, St. Louis, Mo.) were maintained in RPMI 1640 (Invitrogen, Carlsbad, Calif.) and DMEM (Invitrogen), respectively, supplemented with 10% heat-inactivated fetal bovine serum (FBS) in a 37° C., 5% CO2 atmosphere. […]
compound,measurement,setting,value
O=c1cc(N2CCOCC2)oc2c(-c3ccccc3)cccc12 [LY294002],HGF-induced Fn14 expression,[1],no effect
"HGF: hepatocyte growth factor, cognate ligand of c-Met, purchased from Millipore",protein expression of Fn14 on exposure to HGF,"[1]; HGF (20 ng), three hours",enhanced
Cc1[nH]c(/C=C2\C(=O)Nc3ccc(S(=O)(=O)N(C)c4cccc(Cl)c4)cc32)c(C)c1C(=O)N1CCN(C)CC1 [SU11274],Fn14 protein expression,"[2]; SU11274 2 μM, 24 hr",inhibition of the Fn14 protein expression
N#CC(=C(/N)Sc1ccccc1N)/C(C#N)=C(\N)Sc1ccccc1N [U0126],HGF-induced Fn14 expression,[1],completely abrogated
same,Fn14 protein expression,"[2]; U0126 10 μM, three hours",significantly decreased

# Reference: patent US9404927B2, “Systems and methods for diagnosing and treating cancer” (The Translational Genomics Research Institute, priority 2013, dated 2016)
